In PMC5928890 (Theranostics, 2018):

Biological target: Aβ(1-42) (Homo sapiens, UniProt P05067)
Experiment: Aggregation inhibition by paper-based ECL assay with [Ru
Type: biochemical

Aβ(1-42), sequence (P05067 672-713): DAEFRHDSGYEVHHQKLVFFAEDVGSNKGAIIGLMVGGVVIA

- IC50: 1.07 µM
SMILES: Nc1c(/N=N/c2ccc(-c3ccc(/N=N/c4cc(S(=O)(=O)O)c5ccccc5c4N)cc3)cc2)cc(S(=O)(=O)O)c2ccccc12 [CR, Congo red]
